Results from paper PMC6278366, “Synthesis and Evaluation of Anticancer Activities of Novel C-28 Guanidine-Functionalized Triterpene Acid Derivatives” (Molecules, 2018).
Counter-ions that a name gives are not always drawn. Like-named read-outs stand apart in the source and are kept apart here.

Tests used:
[1] = system: Jurkat (T-lymphoblastic leukemia) cells; experiment: cells; type: cell-based; conditions: mean ± SE, at least three experiments in duplicate, viable cells, read-out: IC50 Jurkat
Description: (§1) Cells (Jurkat, K562, U937, HeLa, HEK293 and normal Fibroblasts) were purchased from Russian Cell Culture Collection (Institute of Cytology of the Russian Academy of Sciences, Saint Petersburg, Russia) and cultured according to standard mammalian tissue culture protocols and sterile technique. Human cell lines HEK293 and HeLa were obtained from the HPA Culture Collections (Salisbury, UK). All cell lines used in the study were tested and shown to be free of mycoplasma and viral contamination.
(§2) Cells were maintained in RPMI 1640 (Jurkat, K562, U937) (Gibco, Thermo Fisher Scientific, Waltham, MA, USA) supplemented with 4 mM glutamine, 10% FBS (Sigma, Burlington, MA, USA) and 100 units/mL penicillin-streptomycin (Sigma). All types of cells were grown in an atmosphere of 5% CO2 at 37 °C. The cells were subcultures at 2–3 days intervals. Adherent cells (HEK293, HeLa, fibroblasts) were suspended using trypsin/EDTA and counted after they have reached 80% confluency. Cells were then seeded in 24 well plates at 5 × 10^4 cells per well and incubated overnight. Jurkat, K562, U937 cells were subcultured at 2 day intervals with a seeding density of 1 × 10^5 cells per 24 well plates in RPMI with 10% FBS.
(§3) Viability (Live/dead) assessment was performed by staining cells with 7-AAD (7-Aminoactinomycin D) (Biolegend, San Diego, CA, USA). Cells were treated of test compounds with six different concentrations (1, 5, 10, 15, 30 and 60 μM). After treatment, cells were harvested, washed 1–2 times with phosphate-buffered saline (PBS) and centrifuged at 400× g for 5 min. Cell pellets were resuspended in 200 μL of flow cytometry staining buffer (PBS without Ca^2+ and Mg^2+, 2.5% FBS) and stained with 5 μL of 7-AAD staining solutionfor 15 min at room temperature in the dark. Samples were acquired on NovoCyteTM 2000 FlowCytometry System (ACEA, San Diego, CA, USA) equipped with 488 nm argon laser. Detection of 7-AAD emission was collected through a 675/30 nm filter in FL4 channel.

[2] = system: K562 (chronic myeloid leukemia) cells; experiment: Cytotoxicity assay (7-AAD viability, flow cytometry), K562; type: cell-based, human; conditions: at least three experiments in duplicate, viable cells, read-out: IC50 K562
Description: as §1, §2, §3

[3] = system: U937 (histiocytic lymphoma) cells; experiment: Cytotoxicity assay (7-AAD viability, flow cytometry), U937; type: cell-based, human; conditions: at least three experiments in duplicate, viable cells, read-out: IC50 U937
Description: as §1, §2, §3

[4] = system: HEK293 (embryonic kidney) cells; experiment: Cytotoxicity assay (7-AAD viability, flow cytometry), HEK293; type: cell-based, human; conditions: at least three experiments in duplicate, viable cells
Description: as §1
(§4) HEK293, HeLa cell lines and fibroblasts were cultured as monolayers and maintained in Dulbecco’s modified Eagle’s medium (DMEM, Gibco BRL, Waltham, MA, USA) supplemented with 10% foetal bovine serum and 1% penicillin-streptomycin solution at 37 °C in a humidified incubator under a 5% CO2 atmosphere.
as §2, §3

[5] = system: HeLa (cervical cancer) cells; experiment: Cytotoxicity assay (7-AAD viability, flow cytometry), HeLa; type: cell-based, human; conditions: mean ± SE, at least three experiments in duplicate, viable cells
Description: as §1, §4, §2, §3

normal human fibroblasts = experiment: Cytotoxicity assay (7-AAD viability, flow cytometry), normal fibroblasts; type: cell-based; conditions: mean ± SE, at least three experiments in duplicate
Description: as §1, §4, §2
as §3, with “Cells were treated of test compounds with six different concentrations (1, 5, 10, 15, 30 and 60 μM).” left out

Jurkat cells = experiment: Annexin V/7-AAD apoptosis assay by flow cytometry; type: cell-based, human; conditions: 48 h; for early apoptotic cells (Q7-4) / late apoptotic cells (Q7-2) / necrotic cells (Q7-1) / living (vital) cells (Q7-3): at IC50 concentration (59 μM Dihydro BA; 4 μM 15, 15c, 18c; 8 μM 20c); for total number of apoptotic cells (early + late): at IC50 concentration (59 μM Dihydro BA; 4 μM 15c; 8 μM 20c)
Description: Apoptosis was determined by flow cytometric analysis of Annexin V and 7-aminoactinomycin D staining. Briefly, 200 μL of Guava Nexin reagent (Millipore, Bedford, MA, USA) was added to 5 × 10^5 cells in 200 μL, and the cells were incubated with the reagent for 20 min at room temperature in the dark. […] At the end of incubation, the cells were analyzed on NovoCyteTM 2000 FlowCytometry System (ACEA). Different states of cell death were defined as follows: normal cells are localized in the lower-left quadrant (Annexin V^−/PI^−); early apoptotic cells are in the lower-right quadrant (Annexin V^+/PI^−); late apoptotic cells and necrotic cells are in the upper-right quadrant (Annexin V^+/PI^+); and necrotic cells are in the upper-left quadrant (Annexin V^−/PI^+).
Figure 2 AnnexinV/7-AAD staining upon induction of apoptosis in Jurkat cells. […] Then, the cells were harvested, stained with Annexin V/7-AAD and analyzed by flow cytometry. The experiments were performed three times, and the results of the representative experiments are shown. The first cytogram represents an untreated cell sample (A); after incubation with dihydrobetulinic acid for 24 h (B) and for 48 h (C); after incubation with compound 15 for 24 h (D) and for 48 h (E); after incubation with compound 15c for 24 h (F) and for 48 h (G); after incubation with compound 18c for 24 h (H) and for 48 h (I); after incubation with compound 20c for 24 h (J) and for 48 h (K). Q7-1, necrotic cells; Q7-2, late apoptotic cells; Q7-3, living cells; Q7-4, early apoptotic cells. TEXT PRINTED IN THE PICTURE: (B) Dihydro BA: Q7-1 0.96% (59 μM); Q7-2 12.11% (59 μM); Q7-3 80.09% (59 μM); Q7-4 6.84% (59 μM) | (C) Dihydro BA: Q7-1 2.34% (59 μM); Q7-2 20.53% (59 μM); Q7-3 73.11% (59 μM); Q7-4 4.02% (59 μM) | (D) Compound 15: Q7-1 3.08% (4 μM); Q7-2 2.24% (4 μM); Q7-3 92.34% (4 μM); Q7-4 2.34% (4 μM) | (E) Compound 15: Q7-1 5.53% (4 μM); Q7-2 91.79% (4 μM); Q7-3 0.58% (4 μM); Q7-4 2.10% (4 μM) | (F) Compound 15c: Q7-1 1.51% (4 μM); Q7-2 2.64% (4 μM); Q7-3 84.92% (4 μM); Q7-4 10.93% (4 μM) | (G) Compound 15c: Q7-1 21.72% (4 μM); Q7-2 16.54% (4 μM); Q7-3 54.49% (4 μM); Q7-4 7.25% (4 μM) | (H) Compound 18c: Q7-1 1.48% (4 μM); Q7-2 3.70% (4 μM); Q7-3 91.14% (4 μM); Q7-4 3.67% (4 μM) | (I) Compound 18c: Q7-1 20.73% (4 μM); Q7-2 14.32% (4 μM); Q7-3 58.16% (4 μM); Q7-4 6.79% (4 μM) | (J) Compound 20c: Q7-1 3.78% (8 μM); Q7-2 1.72% (8 μM); Q7-3 92.26% (8 μM); Q7-4 2.24% (8 μM) | (K) Compound 20c: Q7-1 6.09% (8 μM); Q7-2 7.35% (8 μM); Q7-3 78.36% (8 μM); Q7-4 8.20% (8 μM) DOUBTS OF THE COPYIST ABOUT THIS PICTURE: Panel A (Control, untreated cells: Q7-1 3.75%, Q7-2 0.00%, Q7-3 96.24%, Q7-4 0.01%) left out of lines because it is not a substance / Dihydro BA panel B, Q7-3: 80.09% partly overlaid by plot points, 80.09 or 80.03 / Dihydro BA panel C, Q7-3: 73.11% partly overlaid by plot points / Compound 18c panel I, Q7-3: 58.16% small print, 58.16 or 58.18 / Compound 15 panel E, Q7-3: 0.58% small print, 0.58 or 0.56

[6] = Homo sapiens, HEK293, mean ± SE

## CC(=O)O[C@H]1CC[C@@]2(C)C(CC[C@]3(C)C2CCC2C4C(C(C)C)CC[C@]4(C(=O)NCCNC(=N)N)CC[C@]23C)C1(C)C (stereo partly drawn) (as salt: hydrochloride) [Compound 10b, 3β-N-(2-Ethylgyanidine)-3-O-acetyl-lupane-28-amide hydrochloride]
other
  melting point: 192 to 194 °C

## CC(=O)O[C@H]1CC[C@@]2(C)C(CC[C@]3(C)C2CCC2C4C(C(C)C)CC[C@]4(C(=O)NCCCN4CCN(CCCNC(=N)N)CC4)CC[C@]23C)C1(C)C (stereo partly drawn) (as salt: trifluoroacetate) [Compound 13a, 3β-N-{[3-(3-Propylguanidine)piperazinyl]propyl}-3-O-acetyl-lupane-28-amide trifluoroacetate]
other
  melting point: 92 to 94 °C

## CC(=O)O[C@H]1CC[C@@]2(C)C(CC[C@]3(C)C2CCC2C4C(C(C)C)CC[C@]4(C(=O)NCCN(CCNC(=N)N)CCNC(=N)N)CC[C@]23C)C1(C)C (single isomer, unassigned) (as salt: hydrochloride) [Compound 12b, 3β-N-[2-(N,N′-bis-Ethylgyanidine)-aminoethyl]-3-O-acetyl-lupane-28-amide dihydrochloride]
other
  melting point: 198 to 200 °C

## CC(=O)O[C@H]1CC[C@@]2(C)C(CC[C@]3(C)C2CCC2C4C(C(C)C)CC[C@]4(C(=O)NCCN(CCNC(=N)N)CCNC(=N)N)CC[C@]23C)C1(C)C (single isomer, unassigned) (as salt: trifluoroacetate) [Compound 12a, 3β-N-[2-(N,N′-bis-Ethylgyanidine)-aminoethyl]-3-O-acetyl-lupane-28-amide trifluoroacetate]
other
  melting point: 116 to 118 °C

## CC(=O)O[C@H]1CC[C@@]2(C)C(CC[C@]3(C)C2CC=C2C4[C@@H](C)[C@H](C)CC[C@]4(C(=O)OCC(CO)(CO)NC(=N)N)CC[C@]23C)C1(C)C (single isomer, unassigned) [Compound 18c, 3β-[2-Guanidine-3-hydroxy-2-(hydroxymethyl)propyl]-3-O-acetyl-urs-12-en-28-oate hydrochloride]
[1]
  IC50: 3.8 ± 0.23 µM
[2]; mean ± SE
  IC50: 11 ± 0.18 µM
[3]; mean ± SE
  IC50: 5.3 ± 0.29 µM
[4]; mean ± SE
  IC50: 14 ± 0.34 µM
[5]
  IC50: 12 ± 0.29 µM
Normal human fibroblasts
  IC50: 51 ± 0.26 µM
Jurkat cells
  early apoptotic cells (Q7-4): 6.8%
  late apoptotic cells (Q7-2): 14.3%
  necrotic cells (Q7-1): 20.7%

## CC(C)C1CC[C@]2(C(=O)NCCCCN)CC[C@]3(C)C(CCC4[C@@]5(C)CCC(=O)C(C)(C)C5CC[C@]43C)C12 (stereo partly drawn) [Compound 4, N-(4-Aminobuthyl)-3-oxolupane-28-amide]
[1]; Homo sapiens, Jurkat
  IC50: 1.4 ± 0.41 µM
[2]; Homo sapiens, K562, mean ± SE
  IC50: 1.3 ± 0.49 µM
[3]; Homo sapiens, U-937, mean ± SE
  IC50: 1.7 ± 0.36 µM
[4]; [6]
  IC50: 2.4 ± 0.35 µM
[5]; Homo sapiens, HeLa
  IC50: 2.8 ± 0.28 µM
Normal human fibroblasts; Homo sapiens, Fibroblast
  IC50: 3.4 ± 0.19 µM
other
  melting point: 170 to 172 °C

## CC(=O)O[C@H]1CC[C@@]2(C)C(CC[C@]3(C)C2CC=C2C4CC(C)(C)CC[C@]4(C(=O)OCC(CO)(CO)NC(=N)N)CC[C@]23C)C1(C)C (stereo partly drawn) [Compound 20c, 3β-[2-Guanidine-3-hydroxy-2-(hydroxymethyl)propyl]-3-O-acetyl-olean-12-en-28-oate hydrochloride]
[1]
  IC50: 7.6 ± 0.33 µM
[2]; mean ± SE
  IC50: 13 ± 0.45 µM
[3]; mean ± SE
  IC50: 6.8 ± 0.11 µM
[4]; mean ± SE
  IC50: 19 ± 0.17 µM
[5]
  IC50: 17 ± 0.32 µM
Normal human fibroblasts
  IC50: 54 ± 0.12 µM
Jurkat cells
  living (vital) cells (Q7-3): 78.4%
  necrotic cells (Q7-1): 6.1%
  total number of apoptotic cells (early + late): about 15.5%

## CC(C)[C@@H]1CC[C@]2(C(=O)O)CC[C@]3(C)[C@H](CC[C@@H]4[C@@]5(C)CC[C@H](O)C(C)(C)[C@@H]5CC[C@]43C)[C@@H]12 [Dihydro BA, 20,29-dihydrobetulinic acid, reference compound]
[1]; Homo sapiens, Jurkat
  IC50: 59 ± 0.31 µM
[2]; Homo sapiens, K562, mean ± SE
  IC50: 44 ± 0.24 µM
[3]; Homo sapiens, U-937, mean ± SE
  IC50: 39 ± 0.38 µM
[4]; [6]
  IC50: 128 ± 0.32 µM
[5]; Homo sapiens, HeLa
  IC50: 132 ± 0.47 µM
Normal human fibroblasts; Homo sapiens, Fibroblast
  IC50: 517 ± 0.26 µM
Jurkat cells
  early apoptotic cells (Q7-4): 4.0%
  late apoptotic cells (Q7-2): 20.5%
  living (vital) cells (Q7-3): 73.1%
  total number of apoptotic cells (early + late): around 24%
